Measurements as given in patent US9018388B2, “Pesticidal compositions and processes related thereto” (Dow AgroSciences LLC, priority 2012, dated 2015).

How the values were obtained:
Format in all cases: in vivo
[1] = system: Green Peach Aphid (GPA) (Myzus persicae); assay: Bioassay on green peach aphid (GPA), foliar spray on cabbage seedlings; conditions: 72 h, read-out: % Mortality GPA 200 ppm
Protocol: Bioassays on Green Peach Aphid (“GPA”) (Myzus persicae)
Certain molecules disclosed in this document were tested against GPA using procedures described in the following example. In the reporting of the results, the “GPA Rating Table” was used (See Table Section).
Cabbage seedlings grown in 3-inch pots, with 2-3 small (3-5 cm) true leaves, were used as test substrate. The seedlings were infested with 20-50 GPA (wingless adult and nymph stages) one day prior to chemical application. Four pots with individual seedlings were used for each treatment. Test compounds (2 mg) were dissolved in 2 mL of acetone/methanol (1:1) solvent, forming stock solutions of 1000 ppm test compound. The stock solutions were diluted 5× with 0.025% Tween 20 in H2O to obtain the solution at 200 ppm test compound. A hand-held aspirator-type sprayer was used for spraying a solution to both sides of […] leaves until runoff. Reference plants (solvent check) were sprayed with the diluent only containing 20% by volume of acetone/methanol (1:1) solvent. Treated plants were held in a holding room for three days at approximately 25° C. and ambient relative humidity (RH) prior to grading. Evaluation was conducted by counting the number of live aphids per plant under a microscope. Percent Control was measured by using Abbott's correction formula (W. S. Abbott, “A Method of Computing the Effectiveness of an Insecticide” J. Econ. Entomol. 18 (1925), pp. 265-267) as follows. Corrected%Control=100*(X−Y)/X • where • X=No. of live aphids on solvent check plants and • Y=No. of live aphids on treated plants
The results are indicated in the table entitled “Table 5: Biological Results” (See Table Section).

[2] = system: Corn Earworm (CEW) (Helicoverpa zea); assay: Bioassay on corn earworm (CEW), 128-well diet tray assay; conditions: Helicoverpa zea; Corn earworm, 50 μg/cm^2; read-out: % Mortality CEW 50 μg/cm^2
Outline: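 Second-instar Helicoverpa zea larvae (one to five per well) placed on artificial diet treated with 50 μg/cm^2 compound in 90:10 acetone-water, dried, eight wells per compound. Held at 25 °C, 14:10 light-dark, five to seven days; percent mortality averaged over wells.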

[3] = system: Beet Armyworm (BAW) (Spodoptera exigua); assay: Bioassay on beet armyworm (BAW), 128-well diet tray assay; conditions: Spodoptera exigua; Beet armyworm, 50 μg/cm^2; read-out: % Mortality BAW 50 μg/cm^2
Outline: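 Second-instar Spodoptera exigua larvae, one to five per well, on artificial diet treated with 50 μg/cm^2 compound in 90:10 acetone-water and dried, eight wells per compound. Held at 25 °C, 14:10 light-dark for five to seven days; percent mortality averaged over wells.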

| Structure (SMILES) | pest or weed control at 200 ppm [1] [%] | pest or weed control at 50 µg/cm2, 50 µg/cm2 [2] [%] | pest or weed control at 50 µg/cm2, 50 µg/cm2 [3] [%] |
| --- | --- | --- | --- |
| CC(C)c1ccccc1N1CCS/C1=N\N=C\c1ccc(-c2ncn(-c3ccc(OC(F)(F)F)cc3)n2)cc1 [Compound 132C] | 0 to 80 | 50 to 100 | 50 to 100 |
| Cc1cccc(C)c1-n1c(-c2ccc(C(F)(F)F)cc2)cs/c1=N\N=C\c1ccc(-c2ncn(-c3ccc(OC(F)(F)F)cc3)n2)cc1 [Compound 79C] | 0 to 80 | 50 to 100 | 50 to 100 |
| COc1ccc(N2CCCS/C2=N\N=C\c2ccc(-c3ncn(-c4ccc(OC(F)(F)F)cc4)n3)cc2)c(C)c1 [Compound 192C] | 0 to 80 | 50 to 100 | 50 to 100 |
| Cc1cccc(C)c1/N=C(/N/N=C/c1ccc(-c2ncn(-c3ccc(OC(F)(F)F)cc3)n2)cc1)SCc1ccc(S(=O)(=O)Nc2ccc(F)cc2)cc1 [Compound 18C] | 0 to 80 | 50 to 100 | 50 to 100 |
| CC(C)c1ccccc1/N=C1\SCCCN1/N=C/c1ccc(-c2ncn(-c3ccc(C(F)(F)F)cc3)n2)cc1 [Compound 87C, (2Z,NE)-2-((2-isopropylphenyl)imino)-N-(4-(1-(4-(trifluoromethyl)phenyl)-1H-1,2,4-triazol-3-yl)benzylidene)-1,3-thiazinan-3-amine] | 0 to 80 | – | – |
| Fc1cccc(Cl)c1N1CCCS/C1=N\N=C\c1ccc(-c2ncn(-c3ccc(OC(F)(F)F)cc3)n2)cc1 [Compound 188C] | 0 to 80 | 50 to 100 | 50 to 100 |
| Cc1cccc(C)c1/N=C(/N/N=C/c1ccc(-c2ncn(-c3ccc(OC(F)(F)F)cc3)n2)cc1)SCOC(=O)OC(C)C [Compound 24C] | 0 to 80 | 50 to 100 | 50 to 100 |
| Cc1cccc(C)c1/N=C(/N/N=C/c1ccc(-c2ncn(-c3ccc(OC(F)(F)F)cc3)n2)cc1)SCc1ccc(OC(F)(F)F)cc1 [Compound 8C] | 0 to 80 | 50 to 100 | 50 to 100 |
| Cc1ccccc1N1CCCS/C1=N\N=C\c1ccc(-c2ncn(-c3ccc(OC(F)(F)F)cc3)n2)cc1 [Compound 195C] | 0 to 80 | 50 to 100 | 50 to 100 |
| Cc1cccc(C)c1-n1c(-c2nccs2)cs/c1=N\N=C\c1ccc(-c2ncn(-c3ccc(OC(F)(F)F)cc3)n2)cc1 [Compound 75C] | 0 to 80 | 50 to 100 | 50 to 100 |
| CC(C)Cc1ccccc1N1CCCS/C1=N\N=C\c1ccc(-c2ncn(-c3ccc(OC(F)(F)F)cc3)n2)cc1 [Compound 193C] | 0 to 80 | 50 to 100 | 50 to 100 |
| Cc1cccc(C)c1/N=C(/N/N=C/c1ccc(-c2ncn(-c3ccc(OC(F)(F)F)cc3)n2)cc1)SC/C=C/Br [Compound 4C] | 0 to 80 | 50 to 100 | 50 to 100 |
| COc1ccc(C(C)/N=C(/N/N=C/c2ccc(-c3ncn(-c4ccc(OC(F)(F)F)cc4)n3)cc2)SCC(=O)O)cc1 (stereo not shown) [Compound 52C] | 0 to 80 | – | 0 to 50 |
| COc1cc(C)c(/N=C(/N/N=C/c2ccc(-c3ncn(-c4ccc(OC(F)(F)F)cc4)n3)cc2)SCOC(=O)CNC(=O)OCc2ccccc2)c(C)c1 [Compound 28C] | 0 to 80 | 50 to 100 | 50 to 100 |
| COc1ccc(C(C)/N=C(/N/N=C/c2ccc(-c3ncn(-c4ccc(OC(F)(F)F)cc4)n3)cc2)SCC(=O)O)cc1F (stereo not shown) [Compound 53C] | 0 to 80 | – | 0 to 50 |
| Cc1cccc(C)c1/N=C(/N/N=C/c1ccc(-c2ncn(-c3ccc(OC(F)(F)F)cc3)n2)cc1)SCc1ccc(S(N)(=O)=O)cc1 [Compound 13C] | 0 to 80 | 50 to 100 | 50 to 100 |

| Structure (SMILES) | pest or weed control at 200 ppm [1] [%] | pest or weed control at 50 µg/cm2, 50 µg/cm2 [2] [%] | pest or weed control at 50 µg/cm2, 50 µg/cm2 [3] [%] |
| --- | --- | --- | --- |
| COc1ccc(C)cc1N1CCCS/C1=N\N=C\c1ccc(-c2ncn(-c3ccc(OC(F)(F)F)cc3)n2)cc1 [Compound 204C] | 0 to 80 | 50 to 100 | 50 to 100 |
| COc1ccccc1N1CCS/C1=N\N=C\c1ccc(-c2ncn(-c3ccc(OC(F)(F)F)cc3)n2)cc1 [Compound 140C] | 0 to 80 | 50 to 100 | 50 to 100 |
| Cc1cccc(C)c1-n1c(-c2cc(-c3ccc(Cl)cc3)no2)cs/c1=N\N=C\c1ccc(-c2ncn(-c3ccc(OC(F)(F)F)cc3)n2)cc1 [Compound 76C] | 0 to 80 | 50 to 100 | 50 to 100 |
| Cc1cccc(C)c1/N=C(/N/N=C/c1ccc(-c2ncn(-c3ccc(OC(F)(F)F)cc3)n2)cc1)SCc1cc2c(C(F)(F)F)nn(C)c2s1 [Compound 19C] | 0 to 80 | 50 to 100 | 50 to 100 |
| COc1cc(Cl)c(/N=C(/N/N=C/c2ccc(-c3ncn(-c4ccc(OC(F)(F)F)cc4)n3)cc2)SCOC(=O)OC(C)C)c(Cl)c1 [Compound 33C] | 0 to 80 | 50 to 100 | 50 to 100 |
| FC(F)(F)Oc1ccc(-n2cnc(-c3ccc(/C=N/N=C4\SCCCN4c4ccccc4C4CC4)cc3)n2)cc1 [Compound 186C] | 0 to 80 | 50 to 100 | 50 to 100 |
| CCOCC(=O)OCS/C(=N\c1c(C)cc(OC)cc1C)N/N=C/c1ccc(-c2ncn(-c3ccc(OC(F)(F)F)cc3)n2)cc1 [Compound 29C] | 0 to 80 | 50 to 100 | 50 to 100 |
| Cc1ccccc1N1/C(=N/N=C/c2ccc(-c3ncn(-c4ccc(OC(F)(F)F)cc4)n3)cc2)SCC1C (stereo not shown) [Compound 154C] | 0 to 80 | 50 to 100 | 50 to 100 |
| Cc1cccc(C)c1/N=C(/N/N=C/c1ccc(-c2ncn(-c3ccc(OC(F)(F)F)cc3)n2)cc1)SCc1ocnc1-c1ccccc1 [Compound 15C] | 80 to 100 | 50 to 100 | 50 to 100 |
| CC(C)=Cc1ccccc1N1CCS/C1=N\N=C\c1ccc(-c2ncn(-c3ccc(OC(F)(F)F)cc3)n2)cc1 [Compound 151C] | 0 to 80 | 50 to 100 | 50 to 100 |
| Cc1cccc(C)c1/N=C(/N/N=C/c1ccc(-c2ncn(-c3ccc(OC(F)(F)F)cc3)n2)cc1)SCC(=O)NC[C@@H]1CCCNC1 [Compound 62C, (1Z,2E)-2-oxo-2-(((R)-piperidin-3-ylmethyl)amino)ethyl N-(2,6-dimethylphenyl)-2-(4-(1-(4-(trifluoromethoxy)phenyl)-1H-1,2,4-triazol-3-yl)benzylidene)hydrazinecarbimidothioate trifluoroacetic acid] | 0 to 80 | 50 to 100 | 50 to 100 |
| CC(C)=Cc1ccccc1N1C(=O)CS/C1=N\N=C\c1ccc(-c2ncn(-c3ccc(OC(F)(F)F)cc3)n2)cc1 [Compound 121C] | 0 to 80 | 50 to 100 | 50 to 100 |
| Cc1cc(Br)cc(C)c1N1CCCS/C1=N\N=C\c1ccc(-c2ncn(-c3ccc(OC(F)(F)F)cc3)n2)cc1 [Compound 203C] | 0 to 80 | 50 to 100 | 50 to 100 |
| COc1ccccc1N1C(=O)CS/C1=N\N=C\c1ccc(-c2ncn(-c3ccc(OC(F)(F)F)cc3)n2)cc1 [Compound 92C] | 0 to 80 | 50 to 100 | 50 to 100 |
| CCOCC(=O)OCS/C(=N\c1c(Cl)cc(OC)cc1Cl)N/N=C/c1ccc(-c2ncn(-c3ccc(OC(F)(F)F)cc3)n2)cc1 [Compound 32C] | 0 to 80 | – | – |
| COc1cc(Cl)c(/N=C(/N/N=C/c2ccc(-c3ncn(-c4ccc(OC(F)(F)F)cc4)n3)cc2)SCOC(=O)C(C)C)c(Cl)c1 [Compound 34C] | 0 to 80 | – | – |
